According to US11083714B2, “Selective anti-cancer agent effective for prevention and treatment” (Molecular International Research, Inc., priority 2018, dated 2021):
“Also recorded” adds a separate entry of the source. Like-named read-outs stand apart in the source and are kept apart here.

Assays:
[1] = mouse, in vivo
Protocol: To estimate the maximum tolerated dose of compounds 13-7-2 and 13-9-1 in mice, both compounds were dissolved in PBS and given to SCID mice by oral gavage.
Compound 13-7-2 was administered at a dose of 100 mg/kg, 150 mg/kg, or 200 mg/kg. Each dose group consisted of three mice.
Compound 13-9-1 was administered at a dose of 100 mg/kg, 150 mg/kg, or 200 mg/kg by oral gavage (three mice per dose group).
In a separate dose finding/toxicity test with compound 13-9-1, three mice received escalating doses of 50 mg/kg/day for 3 days, 100 mg/kg/day for 7 days, 200 mg/kg/day for 7 days, and 300 mg/kg/day for 3 days, given by oral gavage. Mice were monitored closely for toxic signs.

RPWE-1 = assay: Cell Proliferation (anti-cancer), RPWE-1; assay type: cell-based, human
Protocol: (§1) The primary goal of synthesizing de-ethylflavopereirine (compound 13-9-1) was to generate a different compound that still retains the anti-cancer cell activity of flavopereirine (compound 13-7-2). Comparison of the effects of the two compounds on proliferation of a variety of cancer cells confirmed that this goal was achieved. For example, the effect of de-ethylflavopereirine on two human breast cancer cell lines and two human prostate cancer cell lines were analyzed.

LnCap = assay: Cell Proliferation (anti-cancer), LnCap; assay type: cell-based, human
Protocol: as §1

[2] = assay type: in vivo; conditions: for time of death of one mouse: male, scid/scid, beige/beige, 48 hr
Protocol: A study with synthetic compounds 13-7-2 (flavopereirine) and 13-9-1 (de-ethylflavopereirine) was conducted to compare the toxicity of the two compounds in animals. The compounds were dissolved in phosphate buffered saline for administration. Both compounds were injected IP in male immunodeficient (homozygous recessive scid/scid, beige/beige) mice.
Compound 13-7-2 was injected at a dose of 100 mg/kg, 150 mg/kg, and 200 mg/kg in mice divided in groups of two. […] One mouse injected with 150 mg/kg died at 6 hr whereas one mouse injected with 200 mg/kg dose died at 24 hr. One mouse injected with 100 mg/kg dose died at 48 hr.
Compound 13-9-1 was injected at a dose of 100 mg/kg, 150 mg/kg, and 200 mg/kg in mice divided in groups of two.

[3] = system: MIA PaCa, PANC-1, AsPc, BxPc; assay: Growth inhibition, gemcitabine alone or plus de-ethylflavopereirine; assay type: cell-based; conditions: four pancreatic cancer cell lines
[4] = Homo sapiens, after any period of treatment, read-out: Minimum Dose (IC50) needed to decrease growth 50% or greater versus control

## CCc1ccc2c3[nH]c4ccccc4c3cc[n+]2c1 [Compound 13-7-2, flavopereirine]
[1]; SCID
  tolerated dose, oral administration: up to 100 mg/kg
[1]; SCID, po, 100 mg/kg, 48 hr
  adverse effects observed: No signs of distress were observed in the 100 mg/kg group of mice with the exception of bradycardia 15 min after the administration of the compound in one mouse
[1]; SCID, po, 150 mg/kg, 48 hr
  deaths: two mice died 15 min after administration of the compound and one mouse died 48 hr after administration of the compound
[1]; SCID, po, 200 mg/kg, 48 hr
  deaths: One mouse from this group died 24 hr after the administration of the compound
[1]; po, 200 mg/kg
  signs of distress: two mice exhibited signs of distress which included rapid breathing, bradycardia, shut eyes, and lethargy
RPWE-1
  Growth Inhibition: Yes
RPWE-1; [4]
  IC50: 10 µM
LnCap
  Growth Inhibition: Yes
LnCap; [4]
  IC50: 10 µM
[2]; all doses tested (100, 150, 200 mg/kg)
  mice that died after IP injection: 50%
[2]; mouse, in vivo, ip, 100 mg/kg
  time of death of one mouse: 48 h
  adverse effects observed: swollen abdomen
[2]; mouse, in vivo, ip, 150 mg/kg
  time of death of one mouse: 6 h
[2]; mouse, in vivo, ip, 200 mg/kg
  time of death of one mouse: 24 h

## Nc1ccn([C@@H]2O[C@H](CO)[C@@H](O)C2(F)F)c(=O)n1 [gemcitabine]
[3]
  response of the cell lines to the drug alone: all four of the pancreatic cancer cell lines are resistant; also recorded: some resistance
